Read-outs that look alike come from different tables or passages of the source.
Columns and labels:
[1] = test system: HIV-1 replication in H9 lymphocyte cells; conditions: background art, cited from earlier work; for EC50: read-out: EC50 against HIV-1 replication
HIV-1 (IIIB isolate) = experiment: Anti-HIV activity in H9 lymphocytes (p24 antigen ELISA); type: cell-based; conditions: H-9 lymphocytes; for Anti-HIV Activity EC50: HIV-1 IIIB, p24 ELISA, day 5, average of at least two experiments; for Therapeutic Index (TI = IC50/EC50): ratio of IC50 to EC50
Procedure: (§1) The biological evaluation of HIV-1 inhibition was carried out according to established protocols, (Kashiwada, Y., et al., J. Med. Chem. 39:1016-1017 (1996); Hashimoto, F., et al., Bioorg. & Med. Chem. 5:2133-2143 (1997)). The T cell line, H9, was maintained in continuous culture log-phase growth in complete medium (RPMI 1640 with 10% fetal calf serum supplemented with L-glutamine at 5% CO2 and 37° C.). Test samples were first dissolved in dimethyl sulfoxide at a concentration of 10 mg/ml to generate master stocks with dilutions made into tissue culture media to generate working stocks. The following drug concentrations were used routinely for screening: 50, 5, and 0.5 μg/mL. For agents found to be active, additional dilutions were prepared for subsequent testing so that an accurate EC50 value (defined below) could be determined. As the test samples were being prepared, an aliquot of the H9 cell line was infected with HIV-1 (IIIB isolate) while a second aliquot was mock-infected with complete medium. […] An amount of virus equal to approximately 6.25×10^4 TCID50 was added to the first aliquot of 3.5×10^6H9 cells. The second aliquot received tissue culture medium only, and these mock-infected cells were used for toxicity determinations (IC50 defined below). After a 4 h incubation at 37° C. and 5% CO2, both cell populations were washed three times with fresh medium and then added to the appropriate wells of a 96-well plate containing various concentrations of the test drug or tissue culture medium (positive infected control/negative drug control). In addition, AZT was assayed during each experiment as a positive drug control. The plates were incubated at 37° C. and 5% CO2 for 5 days. Cell-free culture supernatants were collected on Day 5 for use in a p24 antigen-capture ELISA assay to determine virus replication. p24 is the core protein of HIV and therefore is an indirect measure of the amount of virus present in the culture supernatants. Toxicity was determined using a viable dye method (XTT) on mock-infected H9 cells that were treated with test sample, AZT or no drug. If a test sample suppressed viral replication and was toxic to less than 50% of the cells, its effects were reported in the following terms: IC50, the concentration of test sample which was toxic to 50% of the mock-infected H9 cells; EC50, the concentration of the test sample which was able to suppress HIV replication by 50%; and Therapeutic Index (TI), the ratio of IC50 to EC50.
(§2) Compounds of the present invention were assayed for anti-HIV activity according to the following assay procedures. The T cell line, H9, and the promonocytic cell line, U937, were maintained separately in continuous culture with complete medium (RPMI 1640 with 10% fetal calf serum) at 5% CO2 and 37° C. The cell lines were used in experiments only when in the logarithmic phase of growth, whereas uninfected peripheral blood mononuclear cells (PBMCs) were first stimulated with PHA (1 μg/mL) for three days. All cell targets were incubated with HIV-1 (IIIB isolate, 1×10^6 TCID50/mL) for one hour at 37° C. and 5% CO2. The cell lines and PBMCs were washed thoroughly to remove unadsorbed virions and resuspended at 4×10^5 cells/mL in complete medium or complete medium with 10% v/v interleukin 2 (IL-2), respectively. […] aliquots were placed into wells of 96-well tissue culture plates containing an equal volume of test compounds (diluted in the appropriate culture medium). The toxicity of each compound was assessed by determining the viability of compound-exposed uninfected cells after five days at 37° C. and 5% CO2. A p24 antigen ELISA assay was used to determine the level of virus released in the medium of the HIV-infected cultures. The p24 antigen assay used a HIV-1 anti-p24 specific monoclonal antibody as the capture antibody coated onto 96-well plates. […]

mock-infected H9 cells = experiment: Cytotoxicity in mock-infected (uninfected) H9 cells; type: cell-based
Procedure: as §1, §2

| SMILES | EC50 [1] [nM] | therapeutic index (TI) [1] | Anti-HIV Activity EC50 (HIV-1 (IIIB isolate)) [µg/mL] | Therapeutic Index (TI = IC50/EC50) (HIV-1 (IIIB isolate)) | Cytotoxicity IC50 (mock-infected H9 cells; uninfected H9 cells, five days, average of at least two experiments) [µg/mL] | Cytotoxicity IC50 (mock-infected H9 cells) [µg/mL] |
| --- | --- | --- | --- | --- | --- | --- |
| CC1(C)Oc2ccc3ccc(=O)oc3c2[C@@H](OC(=O)[C@@]23CCC(C)(C(=O)O2)C3(C)C)[C@H]1OC(=O)[C@@]12CCC(C)(C(=O)O1)C2(C)C (relative stereo) [DCK, 3′,4′-di-O-(S)-(−)-camphanoyl-(3′R,4′R)-(+)-cis-khellactone] | 0.256 | 136,719 | – | – | – | – |
| CC(=O)O[C@@H]1[C@H](OC(=O)CC(C)C)c2c(ccc3ccc(=O)oc23)OC1(C)C [suksdorfin, (3′R,4′R)-3′-acetoxy-4′-isovaleryloxy-(+)-cis-khellactone] | 1300 | 140 | – | – | – | – |
| COP(=O)(OC)OCc1cc2c(C)cc(=O)oc2c2c1OC(C)(C)[C@H](OC(=O)[C@@]13CCC(C)(C(=O)O1)C3(C)C)[C@@H]2OC(=O)[C@@]12CCC(C)(C(=O)O1)C2(C)C (relative stereo) [Compound 13, (3′R,4′R)-3′,4′-Di-O-(S)-(−)-camphanoyl-6-(dimethylphosphate)methyl-4-methyl-(+)-cis-khellactone] | – | – | 0.504 | 3.79 | 1.91 | – |
| CC(=O)OCc1cc2c(C)cc(=O)oc2c2c1OC(C)(C)[C@H](OC(=O)[C@@]13CCC(C)(C(=O)O1)C3(C)C)[C@@H]2OC(=O)[C@@]12CCC(C)(C(=O)O1)C2(C)C (relative stereo) [Compound 9, (3′R,4′R)-3′,4′-Di-O-(S)-(−)-camphanoyl-6-acetoxymethyl-4-methyl-(+)-cis-khellactone] | – | – | 0.275 | 78.9 | – | 21.70 |

— patent US6768007B2, “Substituted 3′,4′-di-O-camphanoyl-(+)-cis-khellactone analogs, compositions thereof, and methods for using thereof” (Panacos Pharmaceuticals, Inc., priority 2001, dated 2004)
